“And” between values parts separate entries of the source, which are not always exact repeats. Equal entries are not always repeated.

In this assay the test system is BDF1 mice, Adenocarcinoma 755 s.c., tumor weight T/C. The assay can be described thus: NCI In Vivo Anticancer Drug Screen. Data for tumor model Adenocarcinoma 755 (subcutaneous) in B6D2F1 (BDF1) mice. Particulars: endpoint: mean tumor weight, higher = larger tumour. In a few lines: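 In vivo antitumor screen on a transplantable tumor line. Result equals the measure in compound-treated animals divided by the same measure in vehicle controls.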

[1] abbreviates: dose: 15.0 mg/kg/injection, schedule: Q01DX011 (ip), vehicle: methylcellulose (MC).

As usually defined, the T/C is the result in the treated group divided by that in the control group, in per cent. Take `CSc1ncnc2nc[nH]c12`: the T/C was 64 % of control (dose: 0.5 mg/kg/injection, schedule: Q#A X022 (ip), vehicle: carboxymethylcellulose (CMC)); 99 % of control (dose: 1.0 mg/kg/injection, schedule: Q01DX011 (im), vehicle: carboxymethylcellulose (CMC)); 58 % of control (dose: 1.0 mg/kg/injection, schedule: Q01DX011 (oral), vehicle: carboxymethylcellulose (CMC)); 58 % of control (dose: 1.0 mg/kg/injection, schedule: Q01DX011 (sc), vehicle: carboxymethylcellulose (CMC)); 50 % of control (dose: 1.5 mg/kg/injection, schedule: Q01DX011 (ip), vehicle: carboxymethylcellulose (CMC)); 46 % of control (dose: 2.5 mg/kg/injection, schedule: Q#A X022 (ip), vehicle: carboxymethylcellulose (CMC)). Moreover, the T/C was 82 % of control (dose: 3.0 mg/kg/injection, schedule: Q01DX011 (ip), vehicle: carboxymethylcellulose (CMC)); 89 % of control (dose: 5.0 mg/kg/injection, schedule: Q01DX011 (im), vehicle: carboxymethylcellulose (CMC)); 5 % of control and 26 % of control (dose: 5.0 mg/kg/injection, schedule: Q01DX011 (oral), vehicle: carboxymethylcellulose (CMC)); 60 % of control (dose: 5.0 mg/kg/injection, schedule: Q01DX011 (sc), vehicle: carboxymethylcellulose (CMC)); 70 % of control (dose: 5.0 mg/kg/injection, schedule: Q03DX004 (ip), vehicle: carboxymethylcellulose (CMC)); 40 % of control (dose: 5.0 mg/kg/injection, schedule: Q#A X022 (ip), vehicle: carboxymethylcellulose (CMC)). Besides, the T/C by setting is: (dose: 6.0 mg/kg/injection, schedule: Q01DX011 (ip), vehicle: carboxymethylcellulose (CMC)) 28 % of control; (dose: 7.5 mg/kg/injection, schedule: Q#A X022 (ip), vehicle: carboxymethylcellulose (CMC)) 40 % of control; (dose: 10.0 mg/kg/injection, schedule: Q01DX001 (ip), vehicle: carboxymethylcellulose (CMC)) 94 % of control; (dose: 10.0 mg/kg/injection, schedule: Q01DX011 (sc), vehicle: carboxymethylcellulose (CMC)) 30 % of control; (dose: 10.0 mg/kg/injection, schedule: Q03DX004 (ip), vehicle: carboxymethylcellulose (CMC)) 86 % of control; (dose: 12.0 mg/kg/injection, schedule: Q01DX011 (ip), vehicle: carboxymethylcellulose (CMC)) 13 % of control. Also, the T/C was 4 % of control (dose: 12.5 mg/kg/injection, schedule: Q#A X022 (ip), vehicle: carboxymethylcellulose (CMC)); 8 % of control (dose: 15.0 mg/kg/injection, schedule: Q01DX011 (im), vehicle: carboxymethylcellulose (CMC)); 5 % of control (dose: 15.0 mg/kg/injection, schedule: Q01DX011 (oral), vehicle: carboxymethylcellulose (CMC)); 4 % of control (dose: 15.0 mg/kg/injection, schedule: Q01DX011 (sc), vehicle: carboxymethylcellulose (CMC)); 53 % of control (dose: 25.0 mg/kg/injection, schedule: Q01DX001 (ip), vehicle: carboxymethylcellulose (CMC)); 36 % of control (dose: 25.0 mg/kg/injection, schedule: Q01DX006 (iv), vehicle: carboxymethylcellulose (CMC)). Moreover, the T/C reads like this: (dose: 25.0 mg/kg/injection, schedule: Q01DX011 (im), vehicle: carboxymethylcellulose (CMC)) 6 % of control; (dose: 25.0 mg/kg/injection, schedule: Q01DX011 (ip), vehicle: carboxymethylcellulose (CMC)) 1 % of control; (dose: 25.0 mg/kg/injection, schedule: Q01DX011 (oral), vehicle: carboxymethylcellulose (CMC)) 11 % of control; (dose: 25.0 mg/kg/injection, schedule: Q03DX004 (ip), vehicle: carboxymethylcellulose (CMC)) 82 % of control; (dose: 25.0 mg/kg/injection, schedule: Q#A X022 (ip), vehicle: carboxymethylcellulose (CMC)) 2 % of control; (dose: 50.0 mg/kg/injection, schedule: Q01DX001 (ip), vehicle: carboxymethylcellulose (CMC)) 41 % of control. The T/C is 37 % of control (dose: 50.0 mg/kg/injection, schedule: Q01DX006 (iv), vehicle: carboxymethylcellulose (CMC)); 1 % of control (dose: 50.0 mg/kg/injection, schedule: Q01DX011 (ip), vehicle: carboxymethylcellulose (CMC)); 1 % of control and 3 % of control (dose: 50.0 mg/kg/injection, schedule: Q01DX011 (oral), vehicle: carboxymethylcellulose (CMC)); 80 % of control (dose: 50.0 mg/kg/injection, schedule: Q03DX004 (ip), vehicle: carboxymethylcellulose (CMC)); 2 % of control (dose: 50.0 mg/kg/injection, schedule: Q#A X022 (ip), vehicle: carboxymethylcellulose (CMC)); 80 % of control (dose: 75.0 mg/kg/injection, schedule: Q01DX001 (ip), vehicle: carboxymethylcellulose (CMC)). For the same compound, the T/C by setting is: (dose: 75.0 mg/kg/injection, schedule: Q03DX004 (ip), vehicle: carboxymethylcellulose (CMC)) 14 % of control; (dose: 100.0 mg/kg/injection, schedule: Q01DX001 (ip), vehicle: carboxymethylcellulose (CMC)) 46 % of control; (dose: 100.0 mg/kg/injection, schedule: Q01DX006 (iv), vehicle: carboxymethylcellulose (CMC)) 21 % of control; (dose: 100.0 mg/kg/injection, schedule: Q01DX011 (ip), vehicle: carboxymethylcellulose (CMC)) 1 % of control; (dose: 100.0 mg/kg/injection, schedule: Q01DX011 (oral), vehicle: carboxymethylcellulose (CMC)) 5 % of control; (dose: 125.0 mg/kg/injection, schedule: Q01DX001 (ip), vehicle: carboxymethylcellulose (CMC)) 37 % of control. The T/C is, setting by setting: (dose: 150.0 mg/kg/injection, schedule: Q03DX004 (ip), vehicle: carboxymethylcellulose (CMC)) 2 % of control; (dose: 200.0 mg/kg/injection, schedule: Q01DX006 (iv), vehicle: carboxymethylcellulose (CMC)) 4 % of control; (dose: 375.0 mg/kg/injection, schedule: Q01DX001 (ip), vehicle: carboxymethylcellulose (CMC)) 53 % of control.
For `CC(=O)NNC(=O)c1ccccn1`, the T/C by setting is: (dose: 75.0 mg/kg/injection, schedule: Q01DX011 (ip), vehicle: water) 68 % of control; (dose: 100.0 mg/kg/injection, schedule: Q01DX011 (ip), vehicle: water) 37 % of control.
As to `CC(C)CCCCCCCCCCCCC(=O)NCC(=O)NC1C(O)C(O)C(Nc2ncnc3nc[nH]c23)OC1C(O)CO` (centres undefined), the T/C by setting is: (dose: 0.11 mg/kg/injection, schedule: Q## X000 (ip), vehicle: carboxymethylcellulose (CMC)) 62 % of control; (dose: 0.22 mg/kg/injection, schedule: Q01DX011 (ip), vehicle: carboxymethylcellulose (CMC)) 65 % of control; (dose: 0.22 mg/kg/injection, schedule: Q## X000 (ip), vehicle: carboxymethylcellulose (CMC)) 41 % of control; (dose: 0.45 mg/kg/injection, schedule: Q01DX011 (ip), vehicle: carboxymethylcellulose (CMC)) 29 % of control; (dose: 0.45 mg/kg/injection, schedule: Q## X000 (ip), vehicle: carboxymethylcellulose (CMC)) 12 % of control; (dose: 0.9 mg/kg/injection, schedule: Q01DX011 (ip), vehicle: carboxymethylcellulose (CMC)) 5 % of control.
In the case of `CN(C)N=Nc1ccc(C(=O)NC(CCC(=O)NN)C(=O)NN)cc1` (centres undefined), the T/C is, setting by setting: (dose: 100.0 mg/kg/injection, schedule: Q01DX011 (ip), vehicle: saline) 92 % of control; (dose: 150.0 mg/kg/injection, schedule: Q01DX011 (ip), vehicle: saline) 81 % of control.
As to `C=CC(O)CN1CC1C` (centres undefined) (tested in a mixture with another compound), the T/C was 85 % of control (dose: 1.9 mg/kg/injection, schedule: Q01DX011 (ip), vehicle: methylcellulose (MC)); 100 % of control (dose: 3.75 mg/kg/injection, schedule: Q01DX011 (ip), vehicle: methylcellulose (MC)); 97 % of control (dose: 7.5 mg/kg/injection, schedule: Q01DX011 (ip), vehicle: methylcellulose (MC)); 71 % of control under setting [1].
As to `O=c1[nH]c(=O)c2nc(Br)n(C3OC(CO)C(O)C3O)c2[nH]1` (centres undefined), the T/C was 119 % of control (dose: 30.0 mg/kg/injection, schedule: Q01DX011 (ip), vehicle: carboxymethylcellulose (CMC)); 105 % of control (dose: 60.0 mg/kg/injection, schedule: Q01DX011 (ip), vehicle: carboxymethylcellulose (CMC)); 68 % of control (dose: 120.0 mg/kg/injection, schedule: Q01DX011 (ip), vehicle: carboxymethylcellulose (CMC)); 86 % of control (dose: 240.0 mg/kg/injection, schedule: Q01DX011 (ip), vehicle: carboxymethylcellulose (CMC)).
With `CC1CCN(/N=N/c2nc3c([nH]2)c(=O)n(C)c(=O)n3C)CC1`, the T/C was 41 % of control (dose: 25.0 mg/kg/injection, schedule: Q01DX011 (ip), vehicle: methylcellulose (MC)) and 57 % of control (dose: 75.0 mg/kg/injection, schedule: Q01DX011 (ip), vehicle: methylcellulose (MC)).
Take `Cc1cnc(SCc2ccccc2)nc1N(C)C`: the T/C was 57 % of control under setting [1]; 60 % of control (dose: 62.0 mg/kg/injection, schedule: Q01DX011 (ip), vehicle: methylcellulose (MC)); 65 % of control (dose: 125.0 mg/kg/injection, schedule: Q01DX011 (ip), vehicle: methylcellulose (MC)); 50 % of control (dose: 250.0 mg/kg/injection, schedule: Q01DX011 (ip), vehicle: methylcellulose (MC)).

Source of the values: PubChem BioAssay AID180 (DTP/NCI, 2004).
